# According to patent US8247211B2, “Glycopeptide antibiotics” (American Cyanamid Company, priority 2001, dated 2012):
# Legend:
# Test in all cases: In vitro antibacterial evaluation: minimum inhibitory concentration (MIC), broth dilution method
# Type in all cases: cell-based
# Streptococcus sp. = conditions: broth dilution, 5×10^5 CFU/mL, 18 hours at 35° C.
# Procedure: (§1) The minimum inhibitory concentration (MIC), the lowest concentration of the antibiotic which inhibits growth of the test organism, is determined by the broth dilution method using Muller-Hinton II […] (Baltimore Biological Laboratories) following the recommendations of the National Committee for Clinical Laboratory Standards [Methods for dilution antimicrobial susceptibility tests for bacteria that grow aerobically, approved standard M7-A2, National Committee for Clinical Laboratory Standards, Villanova, Pa].
# (§2) An inoculum level of 5×10^5 CFU/mL, and a range of antibiotic concentrations (64-0.06 μg/mL) is used. […] The test organisms include a spectrum of Gram-positive bacteria comprised of Staphylococcus sp., Streptococcus sp. and Enterococcus sp. These organisms include recent clinical isolates that are resistant to methicillin, penicillin and/or vancomycin.
# Enterococcus sp. = conditions: broth dilution, 5×10^5 CFU/mL, 18 hours at 35° C.
# Procedure: as §1, §2
# Escherichia coli = conditions: 5×10^5 CFU/mL, 18 hours at 35° C.
# Procedure: as §1, §2
# Staphylococcus sp. = conditions: for MIC Staphylococcus aureus (ATCC 29213): strain ATCC 29213; for MIC Staphylococcus aureus (GC 1131): strain GC 1131; for MIC Staphylococcus aureus (GC 3051): strain GC 3051; for MIC Staphylococcus aureus (GC 3053): strain GC 3053; for MIC Staphylococcus aureus (GC 4541): strain GC 4541; for MIC Staphylococcus aureus (GC 4542): strain GC 4542; for MIC Staphylococcus aureus-SMITH (GC 4543): strain GC 4543; for MIC Staphylococcus aureus (GC 4544): strain GC 4544; for MIC Staphylococcus aureus (GC 4545): strain GC 4545; for MIC Staphylococcus haemolyticus (GC 4546): strain GC 4546; for MIC Coagulase Negative Staphylococcus (GC 4547): strain GC 4547; for MIC Coagulase Negative Staphylococcus (GC 4548): strain GC 4548; for MIC Coagulase Negative Staphylococcus (GC 4549): strain GC 4549; for MIC Coagulase Negative Staphylococcus (GC 4551): strain GC 4551; for MIC Coagulase Negative Staphylococcus (GC 6257): strain GC 6257
# Procedure: as §1, §2
# [1] = broth dilution, 18 hours at 35° C.
compound,measurement,setting,value
CC(c1ccccc1)C1NC(=O)CNC(=O)C(CO)NC(=O)C(C(O)C2CNC(=N)N2C2OC(CO)C(O)C(O)C2O)NC(=O)C(C(O)C2CNC(=N)N2)NC(=O)C(Cc2ccc(OC3OC(CO)C(OC4OC5COC(CC6CCCCC6)OC5C(O)C4O)C(O)C3O)cc2)NC1=O (centres unmarked) [Example 122],MIC Streptococcus agalactiae (GC 4564),Streptococcus sp.,0.12 µg/mL
same,MIC Streptococcus pneumoniae (GC 1894),Streptococcus sp.,<0.06 µg/mL
same,MIC Streptococcus pneumoniae (GC 4565),Streptococcus sp.,0.12 µg/mL
same,MIC Streptococcus pneumonine (ATCC 6301),Streptococcus sp.,<0.06 µg/mL
same,MIC Streptococcus pyogenes (GC 4563),Streptococcus sp.,<0.06 µg/mL
same,MIC Enterococccus avium (GC 4558),Enterococcus sp.,2 µg/mL
same,MIC Enterococccus faecalis (ATCC 29212),Enterococcus sp.,2 µg/mL
same,MIC Enterococccus faecalis (GC 2691),Enterococcus sp.,2 µg/mL
same,MIC Enterococccus faecalis (GC 3059),Enterococcus sp.,2 µg/mL
same,MIC Enterococccus faecalis (GC 4552),Enterococcus sp.,2 µg/mL
same,MIC Enterococccus faecalis (GC 4553),Enterococcus sp.,4 µg/mL
same,MIC Enterococccus faecalis (GC 4554),Enterococcus sp.,2 µg/mL
same,MIC Enterococccus faecalis (GC 6189),Enterococcus sp.,2 µg/mL
same,MIC Enterococccus faecium (GC 2243),Enterococcus sp.,2 µg/mL
same,MIC Enterococccus faecium (GC 4556),Enterococcus sp.,2 µg/mL
same,MIC Enterococccus faecium (GC 4557),Enterococcus sp.,4 µg/mL
same,MIC Enterococcus faecalis (GC 2242),Enterococcus sp.,2 µg/mL
same,MIC Escherichia coli (ATCC 25922),Escherichia coli,32 µg/mL
same,MIC Escherichia coli (GC 4559),Escherichia coli,32 µg/mL
same,MIC Escherichia coli (GC 4560),Escherichia coli,2 µg/mL
same,MIC Staphylococcus aureus (ATCC 29213),Staphylococcus sp.,2 µg/mL
same,MIC Staphylococcus aureus (ATCC 29213),Staphylococcus sp.; [1],2 µg/mL
same,MIC Staphylococcus aureus (GC 1131),Staphylococcus sp.,2 µg/mL
same,MIC Staphylococcus aureus (GC 1131),Staphylococcus sp.; [1],2 µg/mL
same,MIC Staphylococcus aureus (GC 3051),Staphylococcus sp.,2 µg/mL
same,MIC Staphylococcus aureus (GC 3051),Staphylococcus sp.; [1],2 µg/mL
same,MIC Staphylococcus aureus (GC 3053),Staphylococcus sp.,2 µg/mL
same,MIC Staphylococcus aureus (GC 3053),Staphylococcus sp.; [1],2 µg/mL
same,MIC Staphylococcus aureus (GC 4541),Staphylococcus sp.,2 µg/mL
same,MIC Staphylococcus aureus (GC 4541),Staphylococcus sp.; [1],2 µg/mL
same,MIC Staphylococcus aureus (GC 4542),Staphylococcus sp.,2 µg/mL
same,MIC Staphylococcus aureus (GC 4542),Staphylococcus sp.; [1],2 µg/mL
same,MIC Staphylococcus aureus-SMITH (GC 4543),Staphylococcus sp.; 18 hours at 35° C.,2 µg/mL
same,MIC Staphylococcus aureus-SMITH (GC 4543),Staphylococcus sp.; [1],2 µg/mL
same,MIC Staphylococcus aureus (GC 4544),Staphylococcus sp.,1 µg/mL
same,MIC Staphylococcus aureus (GC 4544),Staphylococcus sp.; [1],1 µg/mL
same,MIC Staphylococcus aureus (GC 4545),Staphylococcus sp.,2 µg/mL
same,MIC Staphylococcus aureus (GC 4545),Staphylococcus sp.; [1],2 µg/mL
same,MIC Staphylococcus haemolyticus (GC 4546),Staphylococcus sp.,2 µg/mL
same,MIC Staphylococcus haemolyticus (GC 4546),Staphylococcus sp.; [1],2 µg/mL
same,MIC Coagulase Negative Staphylococcus (GC 4547),Staphylococcus sp.,2 µg/mL
same,MIC Coagulase Negative Staphylococcus (GC 4547),Staphylococcus sp.; [1],2 µg/mL
same,MIC Coagulase Negative Staphylococcus (GC 4548),Staphylococcus sp.,1 µg/mL
same,MIC Coagulase Negative Staphylococcus (GC 4548),Staphylococcus sp.; [1],1 µg/mL
same,MIC Coagulase Negative Staphylococcus (GC 4549),Staphylococcus sp.,1 µg/mL
same,MIC Coagulase Negative Staphylococcus (GC 4549),Staphylococcus sp.; [1],1 µg/mL
same,MIC Coagulase Negative Staphylococcus (GC 4551),Staphylococcus sp.,2 µg/mL
same,MIC Coagulase Negative Staphylococcus (GC 4551),Staphylococcus sp.; [1],2 µg/mL
same,MIC Coagulase Negative Staphylococcus (GC 6257),Staphylococcus sp.,1 µg/mL
same,MIC Coagulase Negative Staphylococcus (GC 6257),Staphylococcus sp.; [1],1 µg/mL
